Measured values: patent US11707500B2, “Growth promoting peptides, and uses thereof” (NURITAS LIMITED, priority 2015, dated 2023)

system: Human Dermal Fibroblasts (HDF); experiment: BrdU cell proliferation assay; format: cell-based; details: text on FIGS. 1-100; incubated with synthetic peptide 24 h; vs untreated control

| Substance | increase in HDF cell proliferation [%] |
| --- | --- |
| ASSNLDLLGFG [SEQ ID NO: 73] | 16 |
| DDEEEEQGEEEINK [SEQ ID NO: 85] | 35 |
| DEEEEQGEEEINK [SEQ ID NO: 74] | 29 |
| DSINALEPDHR [SEQ ID NO: 474] | 121 |
| EDDEEEEQGEEEINK [SEQ ID NO: 84] | 20 |
| EEGYYGEQQQQPGMTR [SEQ ID NO: 249] | 30 |
| EGYYGEQQQQPGMTR [SEQ ID NO: 247] | 28 |
| EVEERSQNIF [SEQ ID NO: 341] | 83 |
| FHMPP [SEQ ID NO: 455] | 47 |
| FWM (FWMA) [SEQ ID NO: 457] | 114 |
| GAFTPLQYK [SEQ ID NO: 365] | 58 |
| GAFTPLQYKSYQD [SEQ ID NO: 359] | 15 |
| GALMLPHYN [SEQ ID NO: 504] | 119 |
| GALMLPHYNSR [SEQ ID NO: 505] | 118 |
| GYYGEQQQQPGMTR [SEQ ID NO: 248] | 86 |
| HMPSS [SEQ ID NO: 460] | 38 |
| HPMS [SEQ ID NO: 495] | 68 |
| HPRPPKPDAPR [SEQ ID NO: 452] | 76 |
| HRFR [SEQ ID NO: 461] | 85 |
| HRRS [SEQ ID NO: 462] | 15 |
| HSPR [SEQ ID NO: 463] | 100 |
| HWF (HWFA) [SEQ ID NO: 464] | 18 |
| IDGYDTPVEGR [SEQ ID NO: 222] | 110 |

| Substance | increase in HDF cell proliferation [%] |
| --- | --- |
| IEKILLEE [SEQ ID NO: 337] | 8 |
| IFEDAITIPGR [SEQ ID NO: 477] | 81 |
| ITASSNLNLLGFG [SEQ ID NO: 93] | 26 |
| IYGPDTGVDYKDNQMR [SEQ ID NO: 226] | 30 |
| KTLDYWPSLR [SEQ ID NO: 479] | 106 |
| LDALEPDNRIESE [SEQ ID NO: 478] | 76 |
| LEPDNR [SEQ ID NO: 485] | 81 |
| LGAPDVGHPM [SEQ ID NO: 403] | 51 |
| LQQAPPPPQR [SEQ ID NO: 453] | 25 |
| LRGFSK [SEQ ID NO: 501] | 43 |
| LVIPVNGPGK [SEQ ID NO: 121] | 48 |
| LVIPVNGPGKF [SEQ ID NO: 105] | 40 |
| LVIPVNGPGKFE [SEQ ID NO: 97] | 26 |
| LVIPVNGPGKFEA [SEQ ID NO: 98] | 49 |
| LVSHPIAAHEGR [SEQ ID NO: 482] | 113 |
| MFRR [SEQ ID NO: 465] | 96 |
| MPMP [SEQ ID NO: 497] | 58 |
| MPPS [SEQ ID NO: 467] | 90 |
| MPRR [SEQ ID NO: 468] | 82 |
| NGVLRPGQL [SEQ ID NO: 272] | 97 |
| NYDEGSEPRVPAQRE [SEQ ID NO: 158] | 21 |
| PHMP [SEQ ID NO: 470] | 119 |
| PHMPS [SEQ ID NO: 471] | 38 |

| Substance | increase in HDF cell proliferation [%] |
| --- | --- |
| PNSM [SEQ ID NO: 499] | 113 |
| PRRF [SEQ ID NO: 472] | 77 |
| RHGEWGPSY [SEQ ID NO: 480] | 102 |
| RHGEWRPSY [SEQ ID NO: 146] | 80 |
| RSQNIF [SEQ ID NO: 502] | 68 |
| SEEGYYGEQQQQPGMTR [SEQ ID NO: 253] | 112 |
| SRGPIYSNE [SEQ ID NO: 83] | 32 |
| SSEEGYYGEQQQQPGMTR [SEQ ID NO: 252] | 111 |
| TIKLPAGTTSYLVNQDDEEDLRLVD [SEQ ID NO: 181] | 33 |
| TVFNGVLRPGQLL [SEQ ID NO: 270] | 47 |
| VGWGEQPWSPY [SEQ ID NO: 454] | 38 |
| VIPAGHPVAVR [SEQ ID NO: 330] | 18 |
| VIPVNGPGK [SEQ ID NO: 124] | 15 |
| VVIIPAGHPVAITASSNLNLLGFG [SEQ ID NO: 112] | 15 |
| WDP (WDPA) [SEQ ID NO: 500] | 6 |
| WMK (WMKA) [SEQ ID NO: 473] | 41 |
| YGEQQQQPGMTR [SEQ ID NO: 256] | 117 |
| YLRGFS [SEQ ID NO: 503] | 125 |
| YPQLQDLDL [SEQ ID NO: 114] | 119 |
| YRELGAPDVGHPMSE [SEQ ID NO: 410] | 73 |
| YYGEQQQQPGMTR [SEQ ID NO: 257] | 118 |

system: Human Dermal Fibroblasts (HDF); experiment: BrdU cell proliferation assay; format: cell-based; details: HDF incubated 24 h with 5, 0.5 or 0.05 μg/ml synthetic peptide; percentage of untreated control
Procedure: BrDu is incorporated into newly synthesised DNA strands of actively proliferating cells. Following partial denaturation of double stranded DNA, Brdu is detected immunochemically allowing the assessment of the population of cells which are synthesizing DNA.
Human Dermal Fibroblasts (HDF—Sigma 10605a) were seeded in a 96 well plate at 10,000 cells per well in DMEM containing 10% fetal calf serum (FCS), 1% Pen/strep, 1% L-glutamine and allowed to adhere for 24 h.
Following the initial 24 h incubation the cells were incubated with 5 μg/ml, 0.5 μg/ml or 0.05 μg/ml synthetic peptide for 24 h respectively.
After 18 h incubation with synthetic peptides 20 μl BrDu reagent was added to each well.
At 24 h incubation the cell were fixed and the amount of […] was measured using the BrdU Cell Proliferation Assay, all steps were carried out according to the manufacturer's instructions.
Results were calculated as a percentage of the untreated control. An increase in optical density reading indicates greatER incorporation of BrDu and increase cell proliferation.

| Substance | INCREASE IN PROLIFERATION [%] |
| --- | --- |
| 73 (ASSNLDLLGFG) [compound 73] | 16 |
| 74 (DEEEEQGEEEINK) [compound 74] | 29 |
| 83 (SRGPIYSNE) [compound 83] | 32 |
| 84 (EDDEEEEQGEEEINK) [compound 84] | 20 |
| 85 (DDEEEEQGEEEINK) [compound 85] | 35 |
| 93 (ITASSNLNLLGFG) [compound 93] | 26 |
| 97 (LVIPVNGPGKFE) [compound 97] | 26 |
| 98 (LVIPVNGPGKFEA) [compound 98] | 49 |
| 105 (LVIPVNGPGKF) [compound 105] | 40 |
| 112 (VVIIPAGHPVAITASSNLNLLGFG) [compound 112] | 15 |
| 114 (YPQLQDLDL) [compound 114] | 119 |
| 121 (LVIPVNGPGK) [compound 121] | 48 |
| 124 (VIPVNGPGK) [compound 124] | 15 |
| 146 (RHGEWRPSY) [compound 146] | 80 |
| 158 (NYDEGSEPRVPAQRE) [compound 158] | 21 |
| 181 (TIKLPAGTTSYLVNQDDEEDLRLVD) [compound 181] | 33 |
| 222 (IDGYDTPVEGR) [compound 222] | 110 |
| 226 (IYGPDTGVDYKDNQMR) [compound 226] | 30 |
| 247 (EGYYGEQQQQPGMTR) [compound 247] | 28 |
| 248 (GYYGEQQQQPGMTR) [compound 248] | 86 |
| 249 (EEGYYGEQQQQPGMTR) [compound 249] | 30 |
| 252 (SSEEGYYGEQQQQPGMTR) [compound 252] | 111 |
| 253 (SEEGYYGEQQQQPGMTR) [compound 253] | 112 |
| 256 (YGEQQQQPGMTR) [compound 256] | 117 |

| Substance | INCREASE IN PROLIFERATION [%] |
| --- | --- |
| 257 (YYGEQQQQPGMTR) [compound 257] | 118 |
| 270 (TVFNGVLRPGQLL) [compound 270] | 47 |
| 272 (NGVLRPGQL) [compound 272] | 97 |
| 285 (DALEPDNR) [compound 285] | 81 |
| 330 (VIPAGHPVAVR) [compound 330] | 18 |
| 337 (IEKILLEE) [compound 337] | 8 |
| 341 (EVEERSQNIF) [compound 341] | 83 |
| 359 (GAFTPLQYKSYQD) [compound 359] | 15 |
| 365 (GAFTPLQYK) [compound 365] | 58 |
| 403 (LGAPDVGHPM) [compound 403] | 51 |
| 410 (YRELGAPDVGHPMSE) [compound 410] | 73 |
| 452 (HPRPPKPDAPR) [compound 452] | 76 |
| 453 (LQQAPPPPQR) [compound 453] | 25 |
| 454 (VGWGEQPWSPY) [compound 454] | 38 |
| 455 (FHMPP) [compound 455] | 47 |
| 457 (FWMA) [compound 457] | 114 |
| 460 (HMPSS) [compound 460] | 38 |
| 461 (HRFR) [compound 461] | 85 |
| 462 (HRRS) [compound 462] | 15 |
| 463 (HSPR) [compound 463] | 100 |
| 464 (HWFA) [compound 464] | 18 |
| 465 (MFRR) [compound 465] | 96 |
| 467 (MPPS) [compound 467] | 90 |
| 468 (MPRR) [compound 468] | 82 |
